Data published in US12083094B2, “Cannabinoid composition and methods of treatment using the same” (CANNPAL ANIMAL THERAPEUTICS LIMITED, priority 2018, dated 2024).

Assay: Blood sampling for THC and CBD plasma concentration after single oral dosing
Conditions: oral
Description: Two compositions, IVP1 and IVP2, were administered in varying amounts in the study.
Dosage volumes were calculated prior to Day 0, to provide the target dosage in mg/kg bodyweight based on actual dog bodyweights and IVP active ingredient composition based on the Certificates of Analysis.
Blood samples of approximately 5 mL were collected at each drug concentration sampling time-point from each animal using 22-gauge needles and 5 mL syringes.
The data points from Table 4 and Table 5 were also plotted and these graphs are set out in FIGS. 1-16.

[1] = dog, plasma, CBD concentration in blood plasma, individual dogs 1-4, 0.12 mg/kg CBD + 0.24 mg/kg THC oral once
[2] = dog, plasma, CBD concentration in blood plasma, individual dogs 5-8, 0.24 mg/kg CBD + 0.12 mg/kg THC oral once
[3] = dog, plasma, CBD concentration in blood plasma, mean of dogs 1-4, 0.12 mg/kg CBD + 0.24 mg/kg THC oral once
[4] = dog, plasma, CBD concentration in blood plasma, mean of dogs 5-8, 0.24 mg/kg CBD + 0.12 mg/kg THC oral once

Question: Which results are given for `C=C(C)[C@@H]1CCC(C)=C[C@H]1c1c(O)cc(CCCCC)cc1O` [CBD, Cannabidiol]?
Answer: AUC of CBD after 0.12 mg/kg THC/0.24 mg/kg CBD relative to AUC of CBD after 0.24 mg/kg THC/0.12 mg/kg CBD (canine): more than twice; concentration at 0 h [1]: 0 ng/mL; concentration at 1.5 h [1]: 7.5 ng/mL; concentration at 2 h [1]: 6.27 ng/mL; concentration at 32 h [1]: 0 ng/mL; concentration at 0 h [2]: 0 ng/mL; concentration at 2 h [2]: 23.7 ng/mL; concentration at 3 h [2]: 9.21 ng/mL; concentration at 4 h [2]: 5.28 ng/mL; concentration at 12 h [2]: 0.88 ng/mL; concentration at 16 h [2]: 0.55 ng/mL; concentration at 24 h [2]: 0.38 ng/mL; concentration at 32 h [2]: 0.28 ng/mL; concentration at 72 h (dog, plasma, CBD concentration in blood plasma, individual dogs 5-8, 0.24 mg/kg CBD + 0.12 mg/kg THC oral once, 72 h): 0 ng/mL; concentration at 0 h [3]: 0 ng/mL; concentration at 0.67 h [3]: 12.3 ng/mL; concentration at 1 h [3]: 11.2 ng/mL; concentration at 1.5 h [3]: 8.6 ng/mL; concentration at 2 h [3]: 6.89 ng/mL; concentration at 3 h [3]: 4.31 ng/mL; concentration at 4 h [3]: 2.9 ng/mL; concentration at 6 h [3]: 2.02 ng/mL; concentration at 8 h [3]: 1.3 ng/mL; concentration at 12 h [3]: 0.41 ng/mL; concentration at 16 h [3]: 0.16 ng/mL; concentration at 24 h [3]: 0.11 ng/mL; concentration at 32 h [3]: 0 ng/mL; concentration at 0 h [4]: 0 ng/mL; concentration at 0.67 h [4]: 30.1 ng/mL; concentration at 1 h [4]: 35.8 ng/mL; concentration at 1.5 h [4]: 26.9 ng/mL; concentration at 2 h [4]: 17.9 ng/mL; concentration at 3 h [4]: 7.5 ng/mL; concentration at 4 h [4]: 4.53 ng/mL; concentration at 6 h [4]: 3.31 ng/mL; concentration at 8 h [4]: 2.79 ng/mL; concentration at 12 h [4]: 0.77 ng/mL; concentration at 16 h [4]: 0.54 ng/mL; concentration at 24 h [4]: 0.35 ng/mL
